The text below walks through data of patent US20240385087A1, “METHOD FOR STAINING MITOCHONDRIA” (TOCRIS COOKSON LIMITED, priority 2021, published 2024).

Each structure is given as a SMILES string. “Also recorded” adds a separate entry of the source.

Holding throughout (format): cell-based
For series [1], the system named is mitochondria in HeLa cells. Description: Mitochondrial localisation and membrane-potential dependence in HeLa cells (oligomycin / CCCP treatment, confocal imaging). How it is done: (§1) Mitochondrial stains were diluted to working concentrations from 10 mM DMSO stock solutions into DMEM containing 10% FCS and 25 mM HEPES. Solutions were incubated with HeLa cells at 37° C. in a humidified 5% CO2 incubator for the indicated period of time prior to imaging, typically without a washout step (though a washout step can be performed). A Nikon A1R TiE confocal laser scanning microscope equipped with environmental chamber (37° C.) was used for live-cell imaging, employing 561 nm and 640 nm diode laser lines, a Nikon A1R Plan APO VC 60x Oil lens (NA 1.4), pinhole at 1AU. The images were acquired using NIS Elements software and processed using ImageJ.

Series [2] relates to HeLa cells. In words: Optimization of stain concentration for imaging HeLa cells. As to conditions: 50 nM, 60 mins, no washout, same laser power/settings. As for the experimental part:
HeLa cells were incubated with the comparator or COMPOUND 1 for 60 mins at indicated doses and imaged at the same laser power/settings. NOTE: no washout step to remove unbound comparator was performed (manufacturer recommends this) to enable direct comparison with COMPOUND 1. Some toxicity is observed with 100 nM of comparator.
as §1

Series [3] deals with mitochondria in HeLa cells. In words: Time-course live-cell confocal imaging of stained HeLa cells (photostability, localisation, phototoxicity). The settings on record: 50 nM for 60 mins; for (photo)-toxicity during prolonged imaging / localisation at mitochondria over time / photostability / signal over time: live imaging every 5 seconds for 240 frames. How it is done: Within this time frame, COMPOUND 1 intensity drops by ˜25% during the imaging period compared to the comparator which drops by 65%.
Data from two samples of COMPOUND 3,measured at different timepoints is overlaid in the graph (right).
as §1

For `C[Si]1(C)C2=CC(=[N+]3CCC3)C=CC2=C(c2ccccc2)c2ccc(N3CCC3)cc21` [COMPOUND 1, 1-(7-(azetidin-1-yl)-5,5-dimethyl-10-phenyldibenzo[b,e]silin-3 (5H)-ylidene)azetidin-1-ium chloride], in series [1] (HeLa cells, 50 nM stain for 60 mins, then CCCP 10 μM up to 60 minutes), the “effect of de-polarizing the mitochondrial membrane with CCCP on stain” value is “dispersion”. Moreover, the “effect of hyper-polarizing the mitochondrial membrane with oligomycin on stain” value in series [1] (HeLa cells, 50 nM stain for 60 mins, then Oligomycin 5 μg/mL up to 60 minutes) is reported as “accumulation”. Moreover, in series [1] (mitochondrial stain, due to charge potential across the mitochondrial membrane), the localisation of stain result is recorded as “localizes specifically to the mitochondria”. Also, in series [2], the imaging result is given as “excellent results”. Besides, in series [3], the “(photo)-toxicity during prolonged imaging” value was “no apparent toxicity” and the “localisation at mitochondria over time” value is “remains clearly localized at the mitochondria; also recorded: appears to mark the mitochondria more clearly than COMPOUND 2 over time”. Besides, in series [3] (live imaging every 5 seconds for 240 frames (20 minutes), 100% = maximum intensity peak), the “drop of normalized intensity during the imaging period” value was approximately 25%.

Regarding `Cc1ccccc1-c1c2ccc(=[N+]3CCC3)cc-2oc2cc(N3CCC3)ccc12` [COMPOUND 3, 1-(6-(azetidin-1-yl)-9-(o-tolyl)-3H-xanthen-3-ylidene)azetidin-1-ium], in series [3], the “localisation at mitochondria over time” value is on record as “higher non-specific cytoplasmic background (and lower mitochondrial labelling)” and the “photostability / signal over time” value is given as “retention of signal during the first 10 mins of imaging, but then the signal rapidly drops”.

In the case of `c1ccc(-c2c3ccc(=[N+]4CCC4)cc-3oc3cc(N4CCC4)ccc23)cc1` [COMPOUND 4, 1-(6-(azetidin-1-yl)-9-phenyl-3H-xanthen-3-ylidene)azetidin-1-ium chloride], in series [3], the “(photo)-toxicity during prolonged imaging” value was “no observable phototoxicity effects”, the “localisation at mitochondria over time” value was “remain faithfully localized to mitochondria over the entire imaging period” and the “photostability / signal over time” value is recorded as “higher signal retention over time than COMPOUND 3”.
